Measurements reported in PubChem BioAssay (NCI).
Values joined by “and” are separate entries in the source; they are usually repeats but may differ in a detail not shown here. Identical values can stand only once.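 1) Cells in 96-well plates. 2) Compound, 48 h, 5 concentrations. 3) Linear interpolation between surrounding doses. 4) Unreached endpoint = highest concentration. GI50 is the concentration that inhibits growth by half. At the TGI there is no net growth.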

Tests used:
Test in all cases: NCI tumour cell line growth inhibition, 48 h
[1] = tested on: COLO 205 colon
[2] = tested on: HCT-15 colon
[3] = tested on: HT29 colon
[4] = tested on: LOX IMVI melanoma
[5] = tested on: MDA-MB-231 breast
[6] = tested on: NCI-H226 lung
[7] = tested on: SNB-19 CNS
[8] = tested on: TK-10 renal
[9] = tested on: UACC-62 melanoma
[10] = tested on: UO-31 renal

Structure (SMILES)	GI50 [1] [µM]	TGI [1] [µM]	GI50 [2]	TGI [2]	GI50 [3]	TGI [3]	GI50 [4]	TGI [4]	GI50 [5] [µM]	TGI [5]	GI50 [6]	TGI [6]	GI50 [7] [µM]	TGI [7]	GI50 [8]	TGI [8]	GI50 [9] [µM]	TGI [9]	GI50 [10]	TGI [10]
O=C(NCc1ccc(Cn2c(=O)sn(-c3ccccc3)c2=O)cc1)OCc1ccc2cccc(O)c2n1	0.608	2.29	0.298 µM	0.969 µM	0.556 µM	2.08 µM	0.273 µM	0.955 µM	1.19	2.55 µM	1.27 µM	2.77 µM	1.49	2.84 µM	0.571 µM	1.62 µM	1.17	2.44 µM	0.571 µM	1.92 µM
CN(C)C(=S)SSC(=S)N(C)C		29.3	13.4 µM and 47.9 µM and 13.5 µM	29.4 µM and > 100 µM and 31 µM	0.112 µM and 0.29 µM	> 54.9 µM and 30.7 µM	14.9 µM and 5.4 µM and 22.7 µM	28.8 µM and 21.4 µM and > 55 µM		42.9 µM and 32 µM and 53.5 µM	21.4 µM and > 78.4 µM and 38.3 µM	84.6 µM and > 100 µM and > 65.8 µM	25.4	> 100 µM	16.1 µM and > 100 µM and 26.4 µM	30.6 µM and > 100 µM and > 70.6 µM	15.8	32.8 µM and > 41.6 µM and 28.2 µM	15 µM	28.7 µM and > 46.4 µM and 94 µM
O=C1CCCN1c1ccccc1I(=O)=O	> 100	> 100	> 100 µM	> 100 µM	> 100 µM	> 100 µM	> 100 µM	> 100 µM	> 100	> 100 µM	> 100 µM	> 100 µM	> 100	> 100 µM	> 100 µM	> 100 µM	> 100	> 100 µM	> 100 µM	> 100 µM
Nc1cc(Br)c(-c2nnc(CCC(=O)c3nc4ccccc4[nH]3)o2)c(Br)c1	11.8	30.8	> 100 µM	> 100 µM	19.2 µM	83.5 µM	3.25 µM	46.4 µM	10.1	86.8 µM	22.6 µM	> 100 µM	20.1	> 100 µM	36.5 µM	> 100 µM	5.37	> 100 µM	4.06 µM	> 100 µM
COc1cc2c(Nc3cc(Cl)c(OC)c(Cl)c3)c(C#N)cnc2cc1OCCCN1CCN(C)CC1	2.02	3.79	1.32 µM	12.1 µM	0.927 µM	3.25 µM	1.06 µM	2.43 µM	2.6	5.2 µM	3.39 µM	18.2 µM	4.57	14.9 µM	0.253 µM	2.43 µM	2.73	7.9 µM	0.641 µM	5.47 µM
COC(c1ccc(C(C)(C)C)cc1)(c1ccc(C(C)(C)C)cc1)c1ccc(C(C)(C)C)cc1		> 100		> 100 µM		> 100 µM		> 100 µM		> 100 µM		> 100 µM		> 100 µM		> 100 µM		> 100 µM		> 100 µM
CC(C)(C)[Si](C)(C)OC1[C@@H](CNC(=O)NC(=O)CCl)O[C@@H](n2cnc3c(N)ncnc32)[C@H]1O[Si](C)(C)C(C)(C)C (stereo partly drawn)	1.45	3.55	0.832 µM	1.67 µM	0.585 µM	1.43 µM	0.148 µM	0.382 µM	0.905	1.71 µM	0.956 µM	2 µM	2.43	9.46 µM	1.39 µM	3.63 µM	0.877	1.74 µM	0.436 µM	1.13 µM
CCN(CC)CCCCCCNc1cccc2cc(Br)cnc12	1.87	3.88	2.95 µM	10.9 µM	1.88 µM	4.32 µM	2.64 µM	8.07 µM	1.59	4.64 µM	11.8 µM	27 µM	5.77	22.6 µM	1.81 µM	3.89 µM	2.07	4.7 µM	3.15 µM	15 µM
CC(O)CCCOC(c1ccccc1)(c1ccccc1)c1ccccc1 (stereo not drawn)		39.3		29.8 µM		26.2 µM		30.4 µM		33.3 µM		30.2 µM		29.6 µM		30.6 µM		27 µM		26.7 µM
CC(C)[C@H](O)C(=O)N[C@@H](C)C(=O)N[C@@H]1C(=O)N(C)CCc2ccccc21	> 100	> 100	> 100 µM	> 100 µM	> 100 µM	> 100 µM	> 100 µM	> 100 µM	> 100	> 100 µM	> 100 µM	> 100 µM	> 100	> 100 µM	> 100 µM	> 100 µM	> 100	> 100 µM	> 100 µM	> 100 µM
CC(C)CC(C/C=C1/CC(CO)(COC(=O)C(C)(C)C)OC1=O)CC(C)C (stereo not drawn)		0.958		29.1 µM and 28.7 µM	10.3 µM and 2.55 µM	23.2 µM and 18.6 µM	12.3 µM and 1.76 µM	27.9 µM and 21.9 µM		17.4 µM	3.34 µM and 14.1 µM	17.6 µM and 28.5 µM		23.4 µM and 18.5 µM	1.58 µM and 0.543 µM	15.7 µM and 1.97 µM		28.8 µM and 24.1 µM	10.8 µM and 3.51 µM	23 µM and 17.1 µM
COc1ccc(C(CC(=O)c2ccc3c(c2)OCO3)c2c(O)c3ccccc3oc2=O)cc1OC (stereo not drawn)		> 100		> 100 µM		> 100 µM		> 100 µM		> 100 µM		> 100 µM		> 100 µM		> 100 µM		> 100 µM		> 100 µM
